From patent US11008572B2, “Methods and compositions for modulating splicing” (SKYHAWK THERAPEUTICS, INC., priority 2017, dated 2021)

Test: Maximum tolerable dose study
Format: in vivo
Details: mice, 3 per group
Description: Survival of mice after administration of SMSMs after 10 or 11 days was assessed.
Tolerance of the drug treatments was determined by measuring the weight of the mice during the period of drug administration. Body weight was measured prior to tumor inoculation and prior to the treatment administration and then daily. The changes in the final weight of the mice for the SMSM treatments were determined.

Measured: Outcome

CN(c1ccc(-c2ccc(-c3cn[nH]c3)cc2O)nn1)[C@H]1C[C@]2(C)CC[C@](C)(C1)N2 [compound 151, 2-(6-(((1R,3s,5S)-1,5-dimethyl-8-azabicyclo[3.2.1]octan-3-yl)(methyl)amino)pyridazin-3-yl)-5-(1H-pyrazol-4-yl)phenol]
All survived: IP 1 mg/kg QDx11 | PO 10 mg/kg BIDx11 | PO 10 mg/kg QDx11
